Data on 1 compound can be found in patent publication US20230255864A1, “NOVEL COMPOSITIONS COMBINING HEMP DERIVATIVES AND AT LEAST ONE PEPTIDE AND USE THEREOF” (FRANCE COSMEPHYL-LAB, priority 2020, published 2023).

Assay [1] concerns RAW 267.4 murine macrophages. The assay can be described thus: Cell viability of murine macrophages (WST-1 mitochondrial respiration), in parallel with NO release. In kind it is cell-based. The note with it: Mus musculus, RAW267.4; non-linear regression of 3 series of experiments; positive control. As to the method:
(§1) MURINS RAW 267.4 Macrophage cell line (Sigma-Aldrich, No. P6110401, Lot. 091006), low number of passages (less than 50).
(§2) Complete medium: DMEM with stabilized L-glutamine (Dulbecco's Minimum Essential Medium, PAN BIOTECH. Lot 974251) supplemented with Penicillin 100 IU/ml and streptomycin 100 μg/m1 (PAN BIOTECH, Lot 225614), and 10% inactivated calf serum (PAN BIOTECH, Lot P460518), pH 7.2, freshly prepared, stored for less than 3 weeks.
(§3) Cannabidiol (CBD) is diluted in DMSO (10 mg/mL storage solution), and subjected to an ultrasonic bath for 20 minutes. The Neutrazen™ solution is diluted in PBS (Phosphate buffer saline, Sigma-Aldrich).
(§4) RAW 267.4 murine macrophages were inoculated into 48-well tissue culture plates at a concentration of 1.10^5 cells/ml (200 μl/well) and incubated for 24 hours at 37° C. (5% CO2).
(§5) At the end of the incubation period, the culture medium was replaced with 200 μl of medium containing the appropriate concentrations of the material to be tested, and the cells were incubated at 37° C. (5% CO2) for one hour.
(§6) At the end of the incubation period, pro-inflammatory E. coli LPS was added to the cell cultures (1 μg/ml. Then the cells were incubated at 37° C. (5% CO2) for 24 hours.
In parallel with the evaluation of the release of NO, the cell viability was measured to validate the tests. Vital Stain Reagent WST-1 was used to measure cellular mitochondrial respiration. For this, the culture medium was decanted and 100 μl of WST-1 reagent ( 1/10 dilution) were added to each well. After an incubation period of 30 min at 37° C. (5% CO2), the Optical Density (OD) of each well was read at a wavelength of 450 nm by an Infinite M200 Pro fluorescence-luminescence reader (TECAN). The results obtained for the wells treated with the test material were compared with those of the untreated control wells (DMSO, 100% viability) and converted into percentage values.
Inhibition of NO release and inhibition of cell viability were expressed as a percentage relative to the negative controls: […]
(§7) The concentrations of test material causing a 50% decrease in NO release (IC50 (NO release)) and a 50% decrease in cell viability (IC50 (cell viability)) respectively were calculated using TableCurve software Version 2.0.
Analysis of the anti-inflammatory activity and of the cell viability of the cannabidiol/palmitoyl tripeptide-8 (Neutrazen™) association in a mixture by isobologram analysis. For each concentration of Neutrazen™ (0.01, 0.025, 0.05 and 0.1%), different concentrations of CBD are tested (0.01, 0.025, 0.05, 0.1, 0.25, 0.5, 1 and 2.5%) to determine both the production of NO and cell viability.
The results obtained with the different mixtures of CBD and Neutrazen™ made it possible to calculate the pairs of concentrations corresponding to a 50% reduction in the production of NO and a 50% reduction in cell viability.
For orientation: Tetrazolium dyes change colour on reduction, which living cells bring about.

Assay [2] relates to murine macrophages (RAW 267.4 cell line) stimulated with LPS from E. coli. The assay can be described thus: In vitro anti-inflammatory test: inhibition of NO production in LPS-stimulated murine macrophages (Griess reaction). In kind it is cell-based.
Source text: Low-grade inflammation is strongly implicated in degenerative processes in human skin such as photoaging and atopy. The reduction of low-intensity inflammatory reactions by topical products may be necessary in the event of cutaneous aggression, to obtain optimal healing and restore the physiological balance of human skin. In order to identify new anti-inflammatory candidates, an in vitro anti-inflammatory test was developed with a murine cell line: the murine macrophage test RAW 267.4. This test was used to monitor the inhibitory effects of chemical compounds or natural extracts on the low-intensity inflammatory cascade leading to overproduction of nitrogen oxide (NO) in the endothelial wall of blood vessels.
The study was carried out to evaluate the ability of cannabidiol, palmitoyl tripeptide-8 (active ingredient in Neutrazen™), and their mixture to inhibit the pro-inflammatory cascade leading to the production of NO in murine macrophages stimulated by liposaccharides (LPS).
The in vitro anti-inflammatory test is based on the ability of murine macrophages to generate a strong inflammatory response when stimulated by antigens such as LPS. Immobilized murine macrophages (RAW 267.4 cell line) are stimulated with LPS from E. coli and exposed for 24 hours. At the end of the incubation period, the production of NO is evaluated indirectly by measuring the accumulation of nitrite/nitrate, stable final products of the oxidation of NO, in the culture medium using a method spectrophotometric based on the Griess reaction.
as §1, §2, §3
The negative control: DMSO 1% The positive control: Dexamethasone (Sigma-Aldrich) 1-5-10-50-100 μM.
as §4, §5, §6
The amount of NO released was measured in the culture supernatant by the Griess reaction. 100 μl of the supernatants were transferred into the wells of a 96-well tissue culture plate, and modified Griess reagent (SIGMA-ALDRICH) were added to each well. After a period of 15 min at room temperature, the Optical Density (OD) of each well was read at a wavelength of 540 nm by an Infinite M200 Pro fluorescence-luminescence reader (TECAN).
as §7
The anti-inflammatory ratio corresponds to the ratio between anti-inflammatory activity and toxicity. It is expressed as follows: […]
Analysis of the anti-inflammatory activity and of the cell viability of the cannabidiol/palmitoyl tripeptide-8 (Neutrazen™) association in a mixture by isobologram analysis.
(In general: The Griess reaction detects nitrite, a stable product of nitric oxide.)

With `C[C@@H]1C[C@H]2[C@@H]3CCC4=CC(=O)C=C[C@]4(C)[C@@]3(F)[C@@H](O)C[C@]2(C)[C@@]1(O)C(=O)CO` [Dexamethasone], the half-inhibitory concentration (IC50) (as a rule, the concentration at which inhibition is half-maximal) was 193 ± 4.25 µM in assay [1] and 2.98 µM in assay [2] (Mus musculus, RAW267.4, non-linear regression of 3 series of experiments, positive control, read-out: IC50-NO release). For the same compound, the Anti-inflammatory ratio in assay [2] (ratio between anti-inflammatory activity and toxicity (IC50 NO release and IC50 cell viability)) is on record as 64.65.
